From paper PMC3411833, “The Two PPX-GppA Homologues from Mycobacterium tuberculosis Have Distinct Biochemical Activities” (PLoS ONE, 2012)

Columns and labels:
Rv1026 = biological target: T1, Rv1026 (Mycobacterium tuberculosis, UniProt P96374)
T1 construct: gene ppx2

MTB-PPX1 (Rv0496) [1] = biological target: T2, MTB-PPX1 (Rv0496) (Mycobacterium tuberculosis, UniProt P9WHV5)
MTB-PPX1 (Rv0496) [2] = biological target: T2, MTB-PPX1 (Rv0496); remark: listed apart in the source

T2 sequence (P9WHV5 whole entry): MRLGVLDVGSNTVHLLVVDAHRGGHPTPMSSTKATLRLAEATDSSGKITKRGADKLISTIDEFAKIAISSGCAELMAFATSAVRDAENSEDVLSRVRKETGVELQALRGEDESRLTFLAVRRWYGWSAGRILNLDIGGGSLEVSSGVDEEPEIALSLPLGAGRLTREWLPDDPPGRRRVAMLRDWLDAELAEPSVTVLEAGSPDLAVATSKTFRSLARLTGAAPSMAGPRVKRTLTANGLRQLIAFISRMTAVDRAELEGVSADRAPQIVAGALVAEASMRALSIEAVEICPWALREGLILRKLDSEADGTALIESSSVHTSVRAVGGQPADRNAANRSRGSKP
T1 sequence (P96374 whole entry): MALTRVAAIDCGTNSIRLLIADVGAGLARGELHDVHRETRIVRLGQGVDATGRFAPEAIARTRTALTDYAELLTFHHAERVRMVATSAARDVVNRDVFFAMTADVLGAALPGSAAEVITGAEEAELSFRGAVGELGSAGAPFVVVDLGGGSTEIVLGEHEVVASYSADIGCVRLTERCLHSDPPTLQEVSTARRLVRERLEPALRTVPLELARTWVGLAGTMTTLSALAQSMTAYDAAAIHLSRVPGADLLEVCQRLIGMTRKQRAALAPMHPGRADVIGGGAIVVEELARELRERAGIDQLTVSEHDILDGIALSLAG

Nc1nc2c(ncn2[C@@H]2O[C@H](COP(=O)(O)OP(=O)(O)OP(=O)(O)O)[C@@H](OP(=O)(O)OP(=O)(O)O)[C@H]2O)c(=O)[nH]1 [pppGpp, guanosine 5′-triphosphate, 3′-diphosphate]
Exopolyphosphatase activities / +1 mM pppGpp / (% decrease) / ATPase activities (Rv1026): 32.3±9.4%
Exopolyphosphatase activities / +1 mM pppGpp / (% decrease) / ATPase activities (MTB-PPX1 (Rv0496) [1]): 37.9±6.7%

Nc1nc2c(ncn2[C@@H]2O[C@H](COP(=O)(O)OP(=O)(O)O)[C@@H](OP(=O)(O)OP(=O)(O)O)[C@H]2O)c(=O)[nH]1 [ppGpp, guanosine 3′,5′-bisdiphosphate]
Exopolyphosphatase activities / +1 mM ppGpp / (% decrease) / ATPase activities (MTB-PPX1 (Rv0496) [2]): 5.9±0.7%
